Laboratory results reported in US8614179B2, “Antibacterial combination therapy for the treatment of gram positive bacterial infections” (E-Therapeutics PLC, priority 2008, dated 2013).
In brackets after ≈: the same amount, converted by molar mass. Where two headings read alike, the source gives them in different places.

Tests used:
[1] = tested on: MRSA AND VRE; experiment: MIC by agar dilution, MIC50/MIC90/range over MRSA and VRE strain panel; assay type: cell-based, Staphylococcus aureus; Enterococci
Method: In example experiments miconazole nitrate, econazole nitrate and clotrimazole were dissolved in DMSO. Colistin, D-cycloserine, fosfomycin and polymixin B were dissolved in water.
Other solvents that may be used include caster oil, pyridine, and 0.9% saline. For IV administration agents may be solubilised in polyethoxylated caster oil, or cyclodextrins such as sulfobutylether7-βcyclodextrin or hydroxypropyl-β-cyclodextrin and lactic acid. Minimum inhibitory concentrations (MICs) of a range of clinical and control bacterial organisms were measured according to BSAC (British Society for Antimicrobial Chemotherapy) guidelines (Andrews 2001), for single agents. […] MICs were measured by agar dilution. Kill curves were performed in accordance with the methods of Garrison and Nuemiller, 2007. Briefly kill profiles were generated by logarithmically plotting mean CFU/mL data over time. Total logarithmic reductions in bacterial counts were determined by subtracting 24 h CFU/mL values from starting inocula.
(§1) Stock solutions were prepared at concentrations of 1000 mg/L and 100 mg/L. To determine the MIC of miconazole, the appropriate amount of each stock solution were added to separate Petri dishes give a range of final concentrations (after the addition of 20 mL molten agar): from 0.12 to 32 mg/L. To determine the MICs of miconazole with the specific agent active on a bacterial cell surface, these concentrations of miconazole were used in addition to a fixed sub-inhibitory amount of the agent active on a bacterial cell surface. […] Volumes (20 mL) of cooled molten IST agar (oxoid) was added to each Petri dish and mixed by swirling. After drying, the plates were stored at 4° C. and protected from light. Plates were used on the day of preparation.
The test organisms were grown overnight in 5 mL IST broth. Using a dilution in 0.9% saline of 1:100, the appropriate agar plates were inoculated using a multipoint inoculator. […]
The MIC is the minimum amount of an antibiotic at which there is no visible growth of bacteria. Tiny single colonies or faint hazes were not counted as growth. […] The concentration of miconazole, with or without the cell membrane or cell wall active agent, capable of inhibiting the growth of 50% and 90% of the strains tested is reported as the MIC50 and MIC90 respectively. The range of MICs for each group of bacterial strains is also reported.

[2] = tested on: MRSA; experiment: microbe, parasite or virus in culture; assay type: cell-based; settings: Staphylococcus aureus
Method: (§2) In example experiments miconazole nitrate, econazole nitrate and clotrimazole were dissolved in DMSO. Colistin, D-cycloserine, fosfomycin and polymixin B were dissolved in water. Nisin was suspended at 10 mg/mL in 0.02 M HCl, and the supernatant fraction following centrifugation at 10,000 g for 10 mins was used in the following experiments.
(§3) Other solvents that may be used include caster oil, pyridine, and 0.9% saline. For IV administration agents may be solubilised in polyethoxylated caster oil, or cyclodextrins such as sulfobutylether7-βcyclodextrin or hydroxypropyl-β-cyclodextrin and lactic acid. Minimum inhibitory concentrations (MICs) of a range of clinical and control bacterial organisms were measured according to BSAC (British Society for Antimicrobial Chemotherapy) guidelines (Andrews 2001), for single agents. The method of determining MICs of imidazole with colistin, D-cycloserine, fosfomycin, polymixin B, or nisin is described briefly as follows. MICs were measured by agar dilution. Kill curves were performed in accordance with the methods of Garrison and Nuemiller, 2007. Briefly kill profiles were generated by logarithmically plotting mean CFU/mL data over time. Total logarithmic reductions in bacterial counts were determined by subtracting 24 h CFU/mL values from starting inocula.
as §1
(§4) The test organisms were grown overnight in 5 mL IST broth. Using a dilution in 0.9% saline of 1:100, the appropriate agar plates were inoculated using a multipoint inoculator.
(§5) Agar plates and microtitre plates were incubated at 37° C. in air for 18-20 hours.
(§6) The MIC is the minimum amount of an antibiotic at which there is no visible growth of bacteria. Tiny single colonies or faint hazes were not counted as growth. Synergy was reported if the inhibitory effect of the drugs in combination were greater than the sum of the inhibitory effects of each drug singly. The concentration of miconazole, with or without the cell membrane or cell wall active agent, capable of inhibiting the growth of 50% and 90% of the strains tested is reported as the MIC50 and MIC90 respectively. The range of MICs for each group of bacterial strains is also reported.

[3] = tested on: E1 E. gall ATCC 12359 VanC; experiment: organism not typed; assay type: cell-based; settings: Table 4; strain E1 E. gall ATCC 12359 VanC; agents singly or miconazole MIC with 2.5 mg/L nisin
Method: as §2
as §3, with “Briefly kill profiles were generated by logarithmically plotting mean CFU/mL data over time.” left out, “inocula. […]” for “inocula.”
The MIC is the minimum amount of an antibiotic at which there is no visible growth of bacteria. Tiny single colonies or faint hazes were not counted as growth. […]

[4] = tested on: Clostridium difficile; experiment: MIC against clinical isolates of Clostridium difficile; assay type: cell-based; settings: Table 5, miconazole alone or with 0.5 mg/L nisin
Method: as §2, §3, §1, §4, §5, §6

[5] = Table 1a, MRSA n = 27, VRE n = 5, miconazole MIC alone or with D-cycloserine fixed at 10 mg/L
[6] = Table 1b, MRSA n = 27, VRE n = 5, miconazole MIC alone or with fosfomycin fixed at 5 mg/L
[7] = Table 1c, MRSA n = 21, VRE n = 3, miconazole MIC alone or with colistin fixed at 5 mg/L
[8] = Table 1e, MRSA n = 21, VRE n = 4, miconazole MIC alone or with nisin fixed at 2.5 mg/L
[9] = Table 3, MRSA n = 27, VRE n = 5, miconazole alone, 1:1 bacitracin to miconazole, or with bacitracin fixed at 2.5 mg/L

With `Clc1ccc(COC(Cn2ccnc2)c2ccc(Cl)cc2Cl)c(Cl)c1` (stereo not drawn) [Miconazole, 1-[2-(2,4-Dichlorophenyl)-2-[(2,4-dichlorophenyl)methoxy]ethyl]-1H-imidazole] the MIC90 ([1]; 24 h, Table 1d, MRSA n = 21, VRE n = 3, miconazole MIC alone or with polymixin B fixed at 20 mg/L) was 4 µg/mL (≈ 9.61 µM), the MIC 50 ([1]; 24 h, Table 1d, MRSA n = 21, VRE n = 3, miconazole MIC alone or with polymixin B fixed at 20 mg/L, read-out: MIC 50) was 2 µg/mL (≈ 4.81 µM) and the MIC90 [1, 5] was 2 µg/mL (≈ 4.81 µM). For the same compound, the “MIC Range” value [1, 5] was 0.5 to 8 µg/mL, the MIC 50 ([1]; Table 1a, MRSA n = 27, VRE n = 5, miconazole MIC alone or with D-cycloserine fixed at 10 mg/L, read-out: MIC 50) was 2 µg/mL (≈ 4.81 µM) and the “MIC 50” value [1, 6] was 2 µg/mL (≈ 4.81 µM). The MIC90 [1, 6] was 2 µg/mL (≈ 4.81 µM), the “MIC Range” value [1, 6] was 0.5 to 8 µg/mL and the “MIC 50” value [1, 7] was 2 µg/mL (≈ 4.81 µM). The MIC90 [1, 7] was 4 µg/mL (≈ 9.61 µM), the “MIC Range” value [1, 7] was 1 to 6 µg/mL and the “MIC 50” value [1, 8] was 2 µg/mL (≈ 4.81 µM). For the same compound, the MIC90 [1, 8] was 4 µg/mL (≈ 9.61 µM), the “MIC Range” value [1, 8] was 0.5 to 8 µg/mL and the “MIC 50” value [1, 9] was 2 µg/mL (≈ 4.81 µM). For the same compound, the MIC90 [1, 9] was 2 µg/mL (≈ 4.81 µM), the “MIC Range” value [1, 9] was 0.5 to 8 µg/mL and the “MIC Range” value ([1]; Table 1d, MRSA n = 21, VRE n = 3, miconazole MIC alone or with polymixin B fixed at 20 mg/L) was 1 to 6 µg/mL. The MIC ([2]; Table 4, strain LF10, agents singly or miconazole MIC with 2.5 mg/L nisin) was 2 µg/mL, the MIC ([2]; Table 4, strain LF11, agents singly or miconazole MIC with 2.5 mg/L nisin) was 2 µg/mL and the MIC ([2]; Table 4, strain LF12, agents singly or miconazole MIC with 2.5 mg/L nisin) was 2 µg/mL. For the same compound, the MIC ([2]; Table 4, strain LF13, agents singly or miconazole MIC with 2.5 mg/L nisin) was 2 µg/mL, the MIC ([2]; Table 4, strain LF14, agents singly or miconazole MIC with 2.5 mg/L nisin) was 2 µg/mL and the MIC ([2]; Table 4, strain LF15, agents singly or miconazole MIC with 2.5 mg/L nisin) was 2 µg/mL. It also gave an MIC ([2]; Table 4, strain LF16, agents singly or miconazole MIC with 2.5 mg/L nisin) of 2 µg/mL, an MIC ([2]; Table 4, strain LF17, agents singly or miconazole MIC with 2.5 mg/L nisin) of 2 µg/mL and an MIC ([2]; Table 4, strain LF18, agents singly or miconazole MIC with 2.5 mg/L nisin) of 1 µg/mL. The MIC ([2]; Table 4, strain LF19, agents singly or miconazole MIC with 2.5 mg/L nisin) was 2 µg/mL, the MIC ([2]; Table 4, strain PF 15a 009521M ST22 EMRSA, agents singly or miconazole MIC with 2.5 mg/L nisin) was 1 µg/mL and the MIC ([2]; Table 4, strain PF 16a 00923R EMRSA 16, agents singly or miconazole MIC with 2.5 mg/L nisin) was 2 µg/mL. The MIC ([2]; Table 4, strain PF 99b 983237K BERIAN CLONE, agents singly or miconazole MIC with 2.5 mg/L nisin) was 2 µg/mL, the MIC ([2]; Table 4, strain PF 116a 981695K, agents singly or miconazole MIC with 2.5 mg/L nisin) was 2 µg/mL and the MIC ([2]; Table 4, strain PF 153a 026225E, agents singly or miconazole MIC with 2.5 mg/L nisin) was 0.5 µg/mL. For the same compound, the MIC ([2]; Table 4, strain S113 MRSA, agents singly or miconazole MIC with 2.5 mg/L nisin) was 2 µg/mL, the MIC [3] was 1 µg/mL and the MIC ([4]; Clostridioides difficile, C. difficile clinical isolate 184, read-out: MIC) was > 16 µg/mL. For the same compound, the MIC ([4]; C. difficile clinical isolate 5) was >16 µg/mL, the MIC ([4]; C. difficile clinical isolate 23) was >16 µg/mL and the MIC ([4]; C. difficile clinical isolate 28) was >16 µg/mL. The MIC ([4]; C. difficile clinical isolate 30) was >16 µg/mL, the MIC ([4]; C. difficile clinical isolate 31) was >16 µg/mL and the MIC ([4]; C. difficile clinical isolate 41) was >16 µg/mL. For the same compound, the MIC ([4]; C. difficile clinical isolate 47) was >16 µg/mL, the MIC ([4]; C. difficile clinical isolate 57) was >16 µg/mL and the MIC ([4]; C. difficile clinical isolate 58) was >16 µg/mL. For the same compound, the MIC ([4]; C. difficile clinical isolate 77) was >16 µg/mL, the MIC ([4]; C. difficile clinical isolate 83) was >16 µg/mL and the MIC ([4]; C. difficile clinical isolate 84) was >16 µg/mL. The MIC ([4]; C. difficile clinical isolate 87) was >16 µg/mL, the MIC ([4]; C. difficile clinical isolate 96) was >16 µg/mL and the MIC ([4]; C. difficile clinical isolate 97) was >16 µg/mL. The MIC ([4]; C. difficile clinical isolate 98A) was >16 µg/mL, the MIC ([4]; C. difficile clinical isolate 99A) was >16 µg/mL and the MIC ([4]; C. difficile clinical isolate 102) was >16 µg/mL. For the same compound, the MIC ([4]; C. difficile clinical isolate 120) was >16 µg/mL, the MIC ([4]; C. difficile clinical isolate 126) was >16 µg/mL and the MIC ([4]; C. difficile clinical isolate 130) was >16 µg/mL. For the same compound, the MIC ([4]; C. difficile clinical isolate 169) was >16 µg/mL, the MIC ([4]; C. difficile clinical isolate 185) was >16 µg/mL and the MIC ([4]; C. difficile clinical isolate 186) was >16 µg/mL.
